Legend:
[1] = system: Human skeletal muscle cells (SMCs); assay: Glucose uptake assay in human skeletal muscle cells ([3H]2-deoxyglucose); format: cell-based
Experimental: Human skeletal muscle cells (SMCs) were obtained from TCS 2000 Ltd. Cells were seeded into 12-well plates at a density of 3×10^4 cells/well and then grown and differentiated as instructed by TCS. Differentiated human SMCs were incubated, for 32 hours at 37° C./5% CO2, in differentiation media (supplied by TCS) supplemented with an appropriate amount of agent or vehicle. Media was then changed to serum free media (MEM-alpha media, 2 mM glutamine, 100 iu/ml penicillin and 100 μg/ml streptomycin), supplemented as before, and the cells incubated for a further 16 hours.
Cells were then washed 3×with Krebs Ringer Phosphate (KRP) buffer [136 mM NaCl, 4.7 mM KCl, 1.25 mM CaCl2, 1.25 mM MgSO4, 10 mM sodium phosphate buffer, pH 7.4] and incubated in KRP (0.5 ml/well) for 30 minutes at 37° C./5% CO2. After 30 minutes incubation the glucose uptake assay was initiated by addition of 25 μl KRP containing 5 μCi [^3H]2-deoxyglucose and 1 mM deoxyglucose. After 10 minutes the reaction was terminated by washing the cells 3×with ice-cold PBS. Cells were then solublised with 125 μl/well of 1% Triton X-100 for 20 minutes at 37° C. Radioactive incorporation was measured by scintillation counting. 100 μl of each sample was analysed.

[2] = target: T1, human PPARγ1 (Homo sapiens, UniProt P37231); assay: PPARgamma reporter gene assay (luciferase) in transfected cos-7 cells; format: cell-based
T1 construct: expressed in transfected cells; host or cells: cos-7 cells (ECACC No. 87021302)
T1 sequence (P37231 1-477 isoform P37231-2): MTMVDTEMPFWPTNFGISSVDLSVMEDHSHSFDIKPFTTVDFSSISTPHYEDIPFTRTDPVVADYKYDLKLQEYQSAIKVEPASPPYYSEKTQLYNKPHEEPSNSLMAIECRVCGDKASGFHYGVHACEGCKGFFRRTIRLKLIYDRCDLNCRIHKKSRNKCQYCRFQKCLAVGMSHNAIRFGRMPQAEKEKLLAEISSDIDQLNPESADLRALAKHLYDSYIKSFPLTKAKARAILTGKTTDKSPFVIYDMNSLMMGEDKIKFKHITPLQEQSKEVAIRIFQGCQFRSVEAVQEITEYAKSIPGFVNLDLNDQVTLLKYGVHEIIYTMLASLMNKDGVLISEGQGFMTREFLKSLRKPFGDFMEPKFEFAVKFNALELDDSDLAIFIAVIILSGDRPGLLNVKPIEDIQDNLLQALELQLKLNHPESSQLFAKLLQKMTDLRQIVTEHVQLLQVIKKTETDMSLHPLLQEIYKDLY
T1 sequence (P19793 1-462 partner): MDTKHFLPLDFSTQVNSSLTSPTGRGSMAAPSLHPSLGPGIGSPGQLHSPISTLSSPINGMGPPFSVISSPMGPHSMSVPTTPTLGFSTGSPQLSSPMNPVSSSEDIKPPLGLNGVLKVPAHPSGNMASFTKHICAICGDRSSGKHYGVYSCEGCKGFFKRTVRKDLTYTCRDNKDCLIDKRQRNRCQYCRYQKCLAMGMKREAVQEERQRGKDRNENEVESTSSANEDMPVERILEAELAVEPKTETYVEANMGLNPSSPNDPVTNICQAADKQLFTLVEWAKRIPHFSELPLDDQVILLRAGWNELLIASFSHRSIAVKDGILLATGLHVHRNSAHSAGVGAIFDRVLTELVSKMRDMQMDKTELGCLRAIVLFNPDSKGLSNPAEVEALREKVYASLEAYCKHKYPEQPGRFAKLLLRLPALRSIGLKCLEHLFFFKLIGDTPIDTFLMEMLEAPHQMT
Experimental: PPARgamma receptor activity is determined by a suitable reporter gene assay. Preferably the reporter gene assay used comprises the transcription induction of a luciferase gene. Levels of firefly luciferase (normalised against the renilla luciferase control) provide a measure of reporter gene activity which in turn reflects the level of activation.
This assay is based on that described by Kliewer et al (Nature 358 771-774 1992). In brief, cos-7 cells (ECACC No. 87021302) were seeded in 24-well plates at a density of 0.325×10^5 cells/well. Cells were grown overnight at 37° C./5% CO2 in DMEM containing 10% FCS, 2 mM L-glutamine, 100 iu/ml penicillin and 100 µg/ml streptomycin. Cells were washed with transfection media (DMEM containing 2 mM L-glutamine) then transiently transfected with 4 plasmids: a PPAR-responsive firefly luciferase reporter gene (pPPRE3TK-luc); mammalian expression plasmids (pcDNA3/hPPARγ1 and pRSV/hRXRα) containing human PPARγ1 and RXRα cDNAs respectively and a control plasmid (PRLTK, Promega) which constitutatively expresses the renilla luciferase gene. Transfection was performed using Lipofectamine (Gibco Brl) as directed by the manufacturers. Transfected cells were incubated for 6 h at 37° C./5% CO2 and then for a further 46 hours in the presence or absence of ligand. After 46 hours cell lysates were prepared and the level of firefly and renilla luciferase determined using the Dual luciferase assay system (Promega) and a MLX microtitre plate luminometer (Dynex). The level of firefly luciferase (normalised against the renilla luciferase control) provides a measure of reporter gene activity. This in turn reflect the level of PPARγ activation.
A double-stranded PPAR-binding site was prepared using the ‘Klenow fill-in’ technique. A 113 bp oligonucleotide (PPRE1/3) containing a triplet of PPREs and appropriate restriction endonuclease sites was designed. PPRE1/3 and a 20 bp oligonucleotide (PPRE1/3R) complementary to the 3′ region of PPRE1/3 were synthesised.
In a final volume of 20 μl 2 μg of PPRE1/3R was annealed to 2 μg of PPRE1/3 by boiling for 5 minutes and then cooling slowly to room temperature. Annealed PPRE1/3R was used to prime second-strand DNA synthesis. A 30 μl reaction mix containing 20 μl annealed DNA, 1.5 μl 2 mM dNTPs, 1×Klenow Buffer and 5 units DNA Polymerase I (Klenow fragment) was incubated for 1 hour at 37° C. and then 10 minutes at 75° C. A 5 μl sample of the synthesised product was analysed on a 3% agarose gel. The remaining product was purified by ethanol precipitation and resuspended in sterile water. The double-stranded PPAR-binding site (insert) was digested with MluI and BgllI for 1 hour at 37° C. and then purified by ethanol precipitation. 1 μg of the vector pNF-κB-luc (Clontech) was digested with MluI and BgllI for 1 hour at 37° C. and then analysed on a 1% agarose gel Digested DNA was purified from the gel using a Qiaquick Gel Extraction Kit (Qiagen). Digested vector and insert DNA were incubated for 4 hours at room temperature in a volume of 15 μl containing 1×ligase buffer and 5 units T4 DNA ligase. The full ligation reaction was used to transform competant E.coli JM109 cells (Promega).

[3] = 1.25 μg/ml, purified components, Table 8
[4] = 2.5 μg/ml, purified components, Table 8
[5] = 5 μg/ml, purified components, Table 8

| Compound | [3H] 2-deoxyglucose uptake (Fold-induction relative to vehicle) Mean ([1]; 2.5 uM) | [3H] 2-deoxyglucose uptake (Fold-induction relative to vehicle) Mean ([1]; 5 uM) | Activation of PPARgamma in the reporter gene assay (in words) [2] | Reporter gene activity (Fold-induction relative to the vehicle) Mean [2, 3] | Reporter gene activity (Fold-induction relative to the vehicle) Mean [2, 4] | Reporter gene activity (Fold-induction relative to the vehicle) Mean [2, 5] | Reporter gene activity (Fold-induction relative to the vehicle) Mean ([2]; 5 μg/ml, Table 9) |
| --- | --- | --- | --- | --- | --- | --- | --- |
| CC1(COc2ccc(CC3SC(=O)NC3=O)cc2)CCCCC1 (centres unmarked) [Ciglitizone] | 1.3 Fold-induction | 3.3 Fold-induction | – | – | – | – | – |
| C/C(=C\CC/C(C)=C/CCC1[C@](C)(O)CC[C@H]2C(C)(C)C(=O)CC[C@]12C)CC/C=C(\C)C(=O)O (stereo partly drawn) [Commipheric acid, 13-(decahydro-2-hydroxy-2,5,5,8a-tetramethyl-6-oxo-1-naphthalenyl)-2,6,10-trimethyl-, [1R-[1α(2E,6E,10E),2β,4aβ,8aα]]-2,6,10-tridecatrienoic acid] | – | – | able to activate PPARgamma | 2.56 Fold-induction | 3.40 Fold-induction | 8.01 Fold-induction | – |
| C/C(=C\CC/C(C)=C/CC/C(C)=C/CC[C@@H]1[C@@]2(C)CCC(=O)C(C)(C)[C@@H]2CC[C@@]1(C)O)CO [Commipherol, Octahydro-6-hydroxy-5-(13-hydroxy-4,8,12-trimethyl-3,7,11-tridecatrienyl)-1,1,4a,6-tetramethyl-, [4aS-[4aα,5α(3E,7E,11E),6β,8aβ]]-2(1H)-naphthalenone] | – | – | activate PPARgamma to a lesser degree | 3.41 Fold-induction | 4.97 Fold-induction | – | – |
| C/C=C1/C(=O)C[C@H]2[C@@H]3CCC4=CC(=O)CC[C@]4(C)[C@H]3CC[C@]12C [E-guggulsterone, reference compound] | – | – | neither the E-nor the Z-form of guggulsterone can activate PPARgamma | – | – | – | 0.4 Fold-induction |
| C/C(=C\CC/C(C)=C/CC/C(C)=C/CCC1C(C)(O)CCC2C(C)(C)C(O)CCC12C)CO [Myrrhanol A, Decahydro-5-[(3E,7E,11E)-13-hydroxy-4,8,12-trimethyl-3,7,11-tridecatrienyl]-1,1,4a,6-tetramethyl-, (2S,4aS,5R,6R,8aS)-2,6-naphthalenediol] | – | – | activate PPARgamma to a lesser degree | 1.14 Fold-induction | 1.74 Fold-induction | 3.87 Fold-induction | – |
| C/C=C1\C(=O)C[C@H]2[C@@H]3CCC4=CC(=O)CC[C@]4(C)[C@H]3CC[C@]12C [Z-guggulsterone, reference compound] | – | – | neither the E-nor the Z-form of guggulsterone can activate PPARgamma | – | – | – | 0.5 Fold-induction |
